Values of other authors in patent publication US20070117764A1, “Compositions comprising macrolide t-cell immunomodulators or immunosuppressants in combination with antibacterials” (priority 2003, published 2007).

System: allogeneic kidney transplantation
Settings: rat, oral administration, suppression of systemic immune response

SMILES: C=CC[C@@H]1/C=C(\C)C[C@H](C)C[C@H](OC)[C@H]2O[C@@](O)(C(=O)C(=O)N3CCCC[C@H]3C(=O)O[C@H](/C(C)=C/[C@@H]3CC[C@@H](O)[C@H](OC)C3)[C@H](C)[C@@H](O)CC1=O)[C@H](C)C[C@@H]2OC [tacrolimus]
- minimum effective dose (MED): 14 mg/kg
